The subject of one experiment is interleukin 6 (IL-6). As to the kind of experiment: Cytokine mix (CTX)-induced IL-6 release in normal human dermal fibroblasts (ELISA). The experiment is classed as cell-based. To be noted: Zinc 100 uM; for Relative Change (%) Compared to CTX: Table 5, IL-6, nHDF; for Relative Change (%) Compared to CTX / reduction of CTX-mediated increase of IL-6: CTX 0.025 ng/ml; for Relative Change (%) Compared to CTX / % reduction IL-6: UA 2.5 uM; for % reduction IL-6: Table 6, IL-6 concentration in cell supernatant, CTX vs CTX + treatment; for reduction of CTX-mediated increase of IL-6: nHDF, urolithin A 2.5 uM, 24 h pre-treatment + 24 h co-treatment. As to the method:
The protective effects of urolithin A and Zinc against inflammation induced by a cytokines mix (Cytomix, CTX) in human dermal fibroblasts (nHDF cells) were investigated. A dose of 0.025 ng/ml of Cytokines mix was applied to induce inflammation, measured by quantifying the levels of the pro-inflammatory cytokine interleukin 6 (IL-6) in the cell culture supernatant. For the experiment, cells were first pre-treated with either i) urolithin A 2.5 uM, ii) Zinc at 100 uM, iii) a combination of urolithin A 2.5 uM and Zinc 100 uM, iv) or DMSO as control for 24 h. Then cells were co-treated with both CTX and either urolithin A or Zinc alone or in combination, as above. After 24h, IL-6 was measured in the cell supernatant to assess the ability of Urolithin A and Zinc to reduce Cytokines-induced inflammation.
Normal Human dermal fibroblasts (nHDF) purchased from Promocell (ref. C-12302) were seeded at 6000 cells per well in a 96 well plate (Greiner) using a DMEM Glutamax 1 g D-glucose (Gibco, ref 21885108) supplemented with FBS 10% (PanBiotech, ref P30-3033), 1% PenStrep (Biowest) and 1% Hepes (Biowest). All media were sterilized with a 0.45 μm filter unit (VWR). The day after the seeded cells were treated for 24 h with 1) Urolithin A (UA) resuspended in DMSO, Zinc gluconate (MedChemExpress Ref. HY-W145499) or a combination of the two at the indicated doses. Cytokine mix (“cytomix”) was added in addition of the previous treatment for another 24h, cytokines were used equally for a total and final concentration of 0.025 ng/ml (mIFN-g (roche ref.11276905001), TNF-α (Peprotech ref. 300-01A) and IL-b (Proteintech ref. 200-01B)). The medium was collected and an ELISA for Interleukin-6 were performed following the instruction provided by the supplier (Proteintech ref. KE10007). Finally, the absorbance at a wavelength of 450 nm was measured using a microplate plate reader (Fluostar Optima, BMG Labtech). IL-6 data were finally normalized over cell number, calculated with a cell viability assay (Promega, ref. G7571).

A further experiment deals with C2C12 myotubes. As to the kind of experiment: Fatty acid oxidation / mitochondrial respiration analysis on C2C12 myotubes (Seahorse XF96). The experiment is classed as cell-based, Mouse. The settings on record: UA 50 uM, Astaxanthin 20 uM; for induced mitochondrial respiration / Relative Change (%) Compared to DMSO 0.1%: C2C12 myotubes; for induced mitochondrial respiration: 24 hours treatment, vs DMSO; for % increase in maximal mitochondrial respiration: Table 3: change in maximal mitochondrial respiration vs DMSO, 24 hours; for Relative Change (%) Compared to DMSO 0.1%: Table 4. As for the experimental part: Fatty acid oxidation analysis on C2C12 myotubes was measured with a Seahorse XF96 extracellular flux analyzer. […] were seeded at 8,000 cells/well in an XF96 cell culture microplate. Once cells reached confluence, they were differentiated with DMEM (Gibco, 31966047) supplemented with 2% Horse serum, 1% PenStrep and 1% Hepes for 5 days. Cells were treated with UA 50 uM (Amazentis) and Astaxanthin 20 uM (MedChemExpress, LKT-A7476) for 24 hours in substrate-limited media (Gibco, A1443001) supplemented with 0.5 mM glucose, 1 mM glutamine, 1% Oleic acid and 0.5 mM L-Carnitine. Maximal respiration was monitored by injection of 3 µM FCCP in the cartridge. Prior to the assay, cells were incubated in a Fatty acid oxidation medium (111 mM NaCl, 4.7 mM KCl, 1.25 mM CaCI2, 2 mM MgSO4, 1.2 mM NaH2PO4, 5 mM L-Carnitine, 5 mM Hepes, 2.5 mM Glucose) for 20 min, solution must be adjusted to pH 7.4 at 37° C. Mouse muscle C2C12 myotubes were treated for 24 hours with either Urolithin A alone, Astaxanthin alone or a combination of both compounds. Urolithin A alone induced mitochondrial respiration (+8.5%, Table 4). Astaxanthin alone induced mitochondrial respiration (+3.2% Table.4).

Regarding Zinc gluconate, in the experiment with interleukin 6 (IL-6), the “Relative Change (%) Compared to CTX” value was −29.57%, the “% reduction IL-6” value is on record as −29.6% and the “reduction of CTX-mediated increase of IL-6” value stood at 29.6%.
In the case of `CC1=C(/C=C/C(C)=C/C=C/C(C)=C/C=C/C=C(C)/C=C/C=C(C)/C=C/C2=C(C)C(=O)[C@@H](O)CC2(C)C)C(C)(C)C[C@H](O)C1=O` [Astaxanthin], in the experiment with C2C12 myotubes, the induced mitochondrial respiration entry is listed as “+3.2%”, the “% increase in maximal mitochondrial respiration” value is on record as “+3.3%” and the “Relative Change (%) Compared to DMSO 0.1%” value amounted to 2.6%.
In the case of `O=c1oc2cc(O)ccc2c2ccc(O)cc12` [Urolithin A], in the experiment on interleukin 6 (IL-6), the “Relative Change (%) Compared to CTX” value was −25.05%, the % reduction IL-6 worked out at 25% and the “reduction of CTX-mediated increase of IL-6” value is on record as 25%. In addition, in the experiment on C2C12 myotubes, the induced mitochondrial respiration entry was “+8.5%”, the “% increase in maximal mitochondrial respiration” value is given as “+8.5%” and the “Relative Change (%) Compared to DMSO 0.1%” value is 8.4%.

The values above are taken from patent publication US20250367099A1, “UROLITHIN COMBINATIONS” (priority 2024, published 2025).
